{"source": "patent US9175299B2", "about": "“Mutation involved in increased tolerance to imidazolinone herbicides in plants” (BASF AGROCHEMICAL PRODUCTS, B.V., priority 2004, dated 2015)", "key": {"iShiloh-8/imi GDN F2's": {"tested_on": "iShiloh-8/imi GDN F2's", "assay": "Test cross EXP 2001-2 Winter, F2 screen for herbicide tolerance (Table 3)", "format": "in vivo, Triticum aestivum", "procedure": "(§1) Two test-cross experiments of Shiloh-8 with a known Als1 line were performed."}, "M3 Shiloh plants": {"tested_on": "M3 Shiloh plants", "assay": "Tolerance rating of M3 progeny field plots sprayed with imazamox at the three-leaf stage", "format": "in vivo, Triticum aestivum", "procedure": "Samples of 1,500 Shiloh variety seeds were each placed in a 1,000 ml beaker and covered with deionized water to at least 1 inch above the seed level. The beakers were then placed in a refrigerator at 4° C. for 15-20 hours. The seed samples were removed from the refrigerator and brought up to room temperature over an approximately 3 hour period by placing the beaker at room temperature. In some cases, the warming process was accelerated by adding deionized water to the beakers.\nThe deionized water was drained off the seeds, and the beaker was filled with a sodium azide solution to at least 1 inch above the seed level. The sodium azide solution was prepared by adding 27.218 g KH2PO4 to 1,500 ml deionized water, bringing the solution to pH 3 with concentrated H3PO4, and bringing the final solution to 2 L volume with deionized water. Just prior to use, 0.2604 g NaN3 was added, and the solution was kept in the dark. After addition of the sodium azide solution to the seeds, the beakers were incubated in a dark area at room temperature for 2 hours, with occasional stirring.\nThe sodium azide treatment solution was decanted, and the seed samples were rinsed twice with deionized water. Then the seed samples were covered with deionized water to at least 1 inch above seed level and soaked at room temperature for 1 hour, with occasional stirring. The deionized water was decanted, and the seeds were spread evenly on paper towels to dry. The seeds were planted in the field near Berthoud, Colo. in six 5 feet by 40 feet plots. Approximately 15 pounds of M2 seed were harvested, and approximately 466,000 seeds were planted near Platteville, Colo. The fields were sprayed with 1× (40 g ai ha^−1 (imazamox)) or 2× (80 g ai ha^−1 (imazamox)).\nPlants tolerant to the herbicide were identified and transplanted into 1 gallon pots, and put into vernalization for 4 weeks at 45° F. Fourteen single plant selections were made out of the 2× rate area. The tolerant M2 plants were taken out of vernalization, grown out in a Berthoud, Colo. greenhouse, and M3 plants were planted in approximately 4 feet by 5 feet plots near Berthoud, Colo. The plots were sprayed with 80 g ai ha^−1 (imazamox) when the plants were at the three-leaf stage, and the results of the fourteen progenies were rated as shown in Table 1."}, "iShiloh-8": {"tested_on": "iShiloh-8", "assay": "Test cross EXP 2001-2 Winter, parent check (Table 3)", "format": "in vivo, Triticum aestivum", "settings": "number of plants of 8; herbicide not given", "procedure": "as §1"}, "Shiloh-08": {"tested_on": "Shiloh-08", "assay": "Greenhouse screen of Shiloh-08 seedlings with imazamox at the three-leaf stage", "format": "in vivo, Triticum aestivum", "settings": "twelve seeds, 40 g ai ha^−1 imazamox"}, "iSHILOH-08": {"tested_on": "iSHILOH-08", "assay": "Multiple field imidazolinone herbicide imazamox tolerance comparisons (Table 5)", "format": "in vivo, Triticum aestivum", "procedure": "(§2) Agronomic and comparative imidazolinone herbicide imazamox tolerance were then evaluated under field conditions. Table 4 summarizes the yield and agronomic evaluations comparing Shiloh-8 and wild type Shiloh plants. These trials were typical cereal evaluation experiments using incomplete randomized block three replication design. Plots were 1.54 m×4.62 m at harvest. Table 5 summarizes multiple field imidazolinone herbicide imazamox tolerance comparisons between Shiloh-8 and the standard tolerant control […]. These plots ranged from a single row 1 m to larger 1.54 m×4.62 m plots."}, "Shiloh": {"tested_on": "Shiloh", "assay": "Test cross EXP 2001-2 Winter, wild type check (Table 3)", "format": "in vivo, Triticum aestivum", "settings": "number of plants of 7; herbicide not given", "procedure": "as §1"}, "imi GDN": {"tested_on": "imi GDN", "assay": "Test cross EXP 2001-2 Winter, known Als1 line check (Table 3)", "format": "in vivo", "settings": "number of plants of 2; herbicide not given", "procedure": "as §1"}, "iShiloh-8/iGDN F2's": {"tested_on": "iShiloh-8/iGDN F2's", "assay": "Test cross with a known Als1 line, F2 screen for herbicide tolerance (Table 2)", "format": "in vivo, Triticum aestivum", "settings": "test cross of Table 2; herbicide not named at this place", "procedure": "as §1"}, "9604 (iFEDEL)": {"tested_on": "9604 (iFEDEL)", "assay": "Multiple field imidazolinone herbicide imazamox tolerance comparisons (Table 5), standard tolerant control", "format": "in vivo, Triticum aestivum", "settings": "scale 1-no effect 10-dead", "procedure": "as §2"}, "[1]": {"settings": "number of plants of 167 F2's, herbicide not given"}}, "data": [{"smiles": "COCc1cnc(C2=NC(C)(C(C)C)C(=O)N2)c(C(=O)O)c1", "note": "(stereo not drawn) [imazamox]", "values": [{"measurement": "DGP+ Brown sheath", "setting": "iShiloh-8/imi GDN F2's; [1]", "value": 0}, {"measurement": "Dead or Dying growth point", "setting": "iShiloh-8/imi GDN F2's; [1]", "value": 0}, {"measurement": "Strong Survivors", "setting": "iShiloh-8/imi GDN F2's; [1]", "value": 140}, {"measurement": "Winkled or stunted", "setting": "iShiloh-8/imi GDN F2's; [1]", "value": 27}, {"measurement": "Genetic segregation for tolerance in the F2 population", "setting": "iShiloh-8/imi GDN F2's; test cross of Table 3, herbicide not named at this place", "value": "no genetic segregation for tolerance"}, {"measurement": "Tolerance of M3 Shiloh plants to 80 g ai ha^−1 (imazamox)", "setting": "M3 Shiloh plants; line Shiloh-01, 80 g ai ha^−1, three-leaf stage", "value": "Medium MR-MS"}, {"measurement": "Tolerance of M3 Shiloh plants to 80 g ai ha^−1 (imazamox)", "setting": "M3 Shiloh plants; line Shiloh-03, 80 g ai ha^−1, three-leaf stage", "value": "Discard-Sensitive"}, {"measurement": "Tolerance of M3 Shiloh plants to 80 g ai ha^−1 (imazamox)", "setting": "M3 Shiloh plants; line Shiloh-04, 80 g ai ha^−1, three-leaf stage", "value": "Discard-Sensitive"}, {"measurement": "Tolerance of M3 Shiloh plants to 80 g ai ha^−1 (imazamox)", "setting": "M3 Shiloh plants; line Shiloh-05, 80 g ai ha^−1, three-leaf stage", "value": "Discard-Sensitive"}, {"measurement": "Tolerance of M3 Shiloh plants to 80 g ai ha^−1 (imazamox)", "setting": "M3 Shiloh plants; line Shiloh-06, 80 g ai ha^−1, three-leaf stage", "value": "Discard-Sensitive"}, {"measurement": "Tolerance of M3 Shiloh plants to 80 g ai ha^−1 (imazamox)", "setting": "M3 Shiloh plants; line Shiloh-07, 80 g ai ha^−1, three-leaf stage", "value": "Discard-Sensitive"}, {"measurement": "Tolerance of M3 Shiloh plants to 80 g ai ha^−1 (imazamox)", "setting": "M3 Shiloh plants; line Shiloh-08, 80 g ai ha^−1, three-leaf stage", "value": "All Good MR-R"}, {"measurement": "Tolerance of M3 Shiloh plants to 80 g ai ha^−1 (imazamox)", "setting": "M3 Shiloh plants; line Shiloh-09, 80 g ai ha^−1, three-leaf stage", "value": "Discard-Sensitive"}, {"measurement": "Tolerance of M3 Shiloh plants to 80 g ai ha^−1 (imazamox)", "setting": "M3 Shiloh plants; line Shiloh-10, 80 g ai ha^−1, three-leaf stage", "value": "Discard-Sensitive"}, {"measurement": "Tolerance of M3 Shiloh plants to 80 g ai ha^−1 (imazamox)", "setting": "M3 Shiloh plants; line Shiloh-11, 80 g ai ha^−1, three-leaf stage", "value": "Discard-Sensitive"}, {"measurement": "Tolerance of M3 Shiloh plants to 80 g ai ha^−1 (imazamox)", "setting": "M3 Shiloh plants; line Shiloh-12, 80 g ai ha^−1, three-leaf stage", "value": "Discard-Sensitive"}, {"measurement": "Tolerance of M3 Shiloh plants to 80 g ai ha^−1 (imazamox)", "setting": "M3 Shiloh plants; line Shiloh-13, 80 g ai ha^−1, three-leaf stage", "value": "Discard-Sensitive"}, {"measurement": "Tolerance of M3 Shiloh plants to 80 g ai ha^−1 (imazamox)", "setting": "M3 Shiloh plants; line Shiloh-14, 80 g ai ha^−1, three-leaf stage", "value": "Medium MR-MS"}, {"measurement": "DGP+ Brown sheath", "setting": "iShiloh-8", "value": 0}, {"measurement": "Dead or Dying growth point", "setting": "iShiloh-8", "value": 0}, {"measurement": "Strong Survivors", "setting": "iShiloh-8", "value": 7}, {"measurement": "Winkled or stunted", "setting": "iShiloh-8", "value": 1}, {"measurement": "Reaction of Shiloh-08 plants to imazamox screen", "setting": "Shiloh-08", "value": "confirmed a heritable homozygous reaction"}, {"measurement": "′99-′00 Rate D&O Plateville, CO (early) 4 oz/ac", "setting": "iSHILOH-08; 4 oz/ac, early, scale 1-no effect 10-dead", "value": 2}, {"measurement": "′99-′00 Rate D&O Quinter, KS (early) 4 oz/ac", "setting": "iSHILOH-08; 4 oz/ac, early, scale 1-no effect 10-dead, spring application, temperature dropped 19° F. the night following application", "value": 2}, {"measurement": "′99-′00 Rate D&O Quinter, KS (late) 4 oz/ac", "setting": "iSHILOH-08; 4 oz/ac, late, scale 1-no effect 10-dead, spring application, temperature dropped 19° F. the night following application", "value": 5}, {"measurement": "′99-′00 Rate D&O Plateville, CO (early) 8 oz/ac", "setting": "iSHILOH-08; 8 oz/ac, early, scale 1-no effect 10-dead", "value": 3}, {"measurement": "′99-′00 Rate D&O Quinter, KS (early) 8 oz/ac", "setting": "iSHILOH-08; 8 oz/ac, early, scale 1-no effect 10-dead, spring application, temperature dropped 19° F. the night following application", "value": 3}, {"measurement": "′99-′00 Rate D&O Quinter, KS (late) 8 oz/ac", "setting": "iSHILOH-08; 8 oz/ac, late, scale 1-no effect 10-dead, spring application, temperature dropped 19° F. the night following application", "value": 6}, {"measurement": "Sum ′99 M3 Progeny Rating (8 oz/ac) Field", "setting": "iSHILOH-08; 8 oz/ac, field", "value": "R-MR"}, {"measurement": "DGP+ Brown sheath", "setting": "Shiloh", "value": 7}, {"measurement": "Dead or Dying growth point", "setting": "Shiloh", "value": 0}, {"measurement": "Strong Survivors", "setting": "Shiloh", "value": 0}, {"measurement": "Winkled or stunted", "setting": "Shiloh", "value": 0}, {"measurement": "DGP+ Brown sheath", "setting": "imi GDN", "value": 0}, {"measurement": "Dead or Dying growth point", "setting": "imi GDN", "value": 0}, {"measurement": "Strong Survivors", "setting": "imi GDN", "value": 1}, {"measurement": "Winkled or stunted", "setting": "imi GDN", "value": 1}, {"measurement": "Genetic segregation for tolerance in the F2 population", "setting": "iShiloh-8/iGDN F2's", "value": "no genetic segregation for tolerance"}, {"measurement": "′99-′00 Rate D&O Plateville, CO (early) 4 oz/ac", "setting": "9604 (iFEDEL); 4 oz/ac, early", "value": 1}, {"measurement": "′99-′00 Rate D&O Quinter, KS (early) 4 oz/ac", "setting": "9604 (iFEDEL); 4 oz/ac, early, spring application, temperature dropped 19° F. the night following application", "value": 1}, {"measurement": "′99-′00 Rate D&O Quinter, KS (late) 4 oz/ac", "setting": "9604 (iFEDEL); 4 oz/ac, late, spring application, temperature dropped 19° F. the night following application", "value": 8}, {"measurement": "′99-′00 Rate D&O Plateville, CO (early) 8 oz/ac", "setting": "9604 (iFEDEL); 8 oz/ac, early", "value": 2}, {"measurement": "′99-′00 Rate D&O Quinter, KS (early) 8 oz/ac", "setting": "9604 (iFEDEL); 8 oz/ac, early, spring application, temperature dropped 19° F. the night following application", "value": 2}, {"measurement": "′99-′00 Rate D&O Quinter, KS (late) 8 oz/ac", "setting": "9604 (iFEDEL); 8 oz/ac, late, spring application, temperature dropped 19° F. the night following application", "value": 8}]}]}
